Legend:
[1] = Prodrug conversion in rat assessed as oral bioavailability of (2S,3S)-2-amino-3-(aminomethyl)-6-boronohexanoic acid metabolite; format: ADME, organism-based; conditions: in vivo
Arginase-1 [2] = molecular target: T1, Arginase-1 (Homo sapiens, UniProt P05089); test: Inhibition of Arg1 (unknown origin)
T1 sequence (P05089 whole entry): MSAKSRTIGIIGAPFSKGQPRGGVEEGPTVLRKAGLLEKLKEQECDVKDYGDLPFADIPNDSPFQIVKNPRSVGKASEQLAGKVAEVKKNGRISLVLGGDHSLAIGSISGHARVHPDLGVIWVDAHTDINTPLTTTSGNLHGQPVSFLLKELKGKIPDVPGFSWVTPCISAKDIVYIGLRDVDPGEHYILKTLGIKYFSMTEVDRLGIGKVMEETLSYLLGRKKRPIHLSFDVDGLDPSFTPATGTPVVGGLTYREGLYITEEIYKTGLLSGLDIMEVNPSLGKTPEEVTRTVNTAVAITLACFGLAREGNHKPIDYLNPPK

Arginase-1 [3] = molecular target: T1, Arginase-1; test: Inhibition of recombinant human Arg1 extracted from Escherichia coli incubated for 30 mins by Ellman's method
[4] = Oral availability in rat; format: ADME; conditions: in vivo
[5] = molecular target: T2, Arginase-2, mitochondrial (Homo sapiens, UniProt P78540); test: Inhibition of recombinant human Arg2 extracted from Escherichia coli incubated for 30 mins by Ellman's method
T2 sequence (P78540 whole entry): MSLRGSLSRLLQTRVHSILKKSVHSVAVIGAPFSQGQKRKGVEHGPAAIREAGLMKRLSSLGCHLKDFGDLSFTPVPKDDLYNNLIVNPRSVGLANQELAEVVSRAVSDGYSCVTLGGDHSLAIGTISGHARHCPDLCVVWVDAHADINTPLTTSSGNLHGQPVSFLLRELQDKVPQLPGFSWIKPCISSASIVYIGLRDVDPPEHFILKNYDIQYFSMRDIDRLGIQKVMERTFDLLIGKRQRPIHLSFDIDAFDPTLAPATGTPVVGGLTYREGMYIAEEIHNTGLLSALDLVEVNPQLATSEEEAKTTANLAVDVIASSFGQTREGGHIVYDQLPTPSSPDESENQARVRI

[6] = molecular target: T3, Arginase-1 (Homo sapiens) (UniProt P05089); test: Potency index, ratio of ABH IC50 to test compound IC50 for recombinant human Arg1 extracted from Escherichia coli incubated for 30 mins by Ellman's method
T3 sequence (whole entry): T1 sequence (P05089 whole entry)

Row | Compound | F [1] [%] | IC50 (Arginase-1 [3]) [µM] | bioavailability [4] [%] | IC50 [5] [µM] | other results
1 | CC(C)[C@H](N)C(=O)N[C@H](C(=O)O)[C@H](CN)CCCB(O)O | 31 |  |  |  | 
2 | C[C@H](N)C(=O)N[C@H](C(=O)O)[C@@H](CN)CCCB(O)O | 16 |  |  |  | 
3 | N[C@@H](CCCCB(O)O)C(=O)O |  |  |  |  | IC50 (Arginase-1 [2]): 0.47 µM
4 | NCC(=O)NC[C@H](CCCB(O)O)[C@H](N)C(=O)O | 13 | 21 | 6.3 |  | 
5 | NC[C@H](CCCB(O)O)[C@H](N)C(=O)O |  |  | 11 | 0.224 | 
6 | N[C@H](C(=O)O)[C@@H](CF)CCCB(O)O |  | 4.23 |  | 6.08 | 
7 | N[C@H](C(=O)O)[C@H](CCCB(O)O)CN1CCCCC1 |  |  |  | 17.4 | 
8 | COC[C@H](CCCB(O)O)[C@H](N)C(=O)O |  | 4.12 |  | 6.75 | 
9 | NC[C@@H](CCCB(O)O)[C@H](N)C(=O)O |  |  | 17 |  | 
10 | N[C@H](C(=O)O)[C@H](CF)CCCB(O)O |  | 0.655 |  | 1.88 | 
11 | N=C(N)NC[C@@H](CCCB(O)O)[C@H](N)C(=O)O |  | 0.22 |  | 0.534 | 
12 | CC(C)(C)[C@H](N)C(=O)NC[C@H](CCCB(O)O)[C@H](N)C(=O)O |  | 32 | 19 |  | 
13 | C[C@H](N)C(=O)N[C@H](C(=O)O)[C@H](CN)CCCB(O)O | 66 | 68 |  |  | 
14 | COC[C@@H](CCCB(O)O)[C@H](N)C(=O)O |  | 10.9 |  | 18.7 | 
15 | NCC[C@@H](CCCB(O)O)[C@H](N)C(=O)O |  |  |  | 0.625 | 
16 | CC[C@H](C)[C@H](N)C(=O)NC[C@H](CCCB(O)O)[C@H](N)C(=O)O | 39 | 33 | 4.5 |  | 

The next lines start with results.

Row | F [1] [%] | IC50 (Arginase-1 [3]) [µM] | bioavailability [4] [%] | IC50 [5] [µM] | Compound | other results
17 |  | 19.2 |  | 41.8 | NC(=O)[C@H](CCCB(O)O)[C@H](N)C(=O)O | 
18 |  | > 100 |  | > 100 | NC(=O)[C@@H](CCCB(O)O)[C@H](N)C(=O)O | 
19 | 72 | 25 | 1.5 |  | CC[C@H](N)C(=O)NC[C@H](CCCB(O)O)[C@H](N)C(=O)O | 
20 |  | > 100 |  |  | CNC(=O)[C@@H](CCCB(O)O)[C@H](N)C(=O)O | 
21 |  |  |  | 5.18 | NC(=O)NC[C@@H](CCCB(O)O)[C@H](N)C(=O)O | 
22 |  |  |  | 1.93 | CNC[C@@H](CCCB(O)O)[C@H](N)C(=O)O | 
23 | 55 | 12 | 5.1 |  | C[C@H](N)C(=O)NC[C@H](CCCB(O)O)[C@H](N)C(=O)O | Ratio IC50 [6]: 40
24 |  | 18.5 |  | 51.9 | COC(=O)[C@H](CCCB(O)O)[C@H](N)C(=O)O | 
25 |  | > 100 |  | > 100 | COC(=O)[C@@H](CCCB(O)O)[C@H](N)C(=O)O | 
26 | 56 | 145 | 29 |  | CC(C)[C@H](N)C(=O)NC[C@@H](CCCB(O)O)[C@H](N)C(=O)O | 
27 |  | 157 | 10 |  | C[C@H](N)C(=O)NC[C@@H](CCCB(O)O)[C@H](N)C(=O)O | 
28 |  | 74 |  | 96.8 | N[C@H](C(=O)O)[C@@H](N)CCCB(O)O | 
29 |  | 34.2 |  | > 100 | CNC(=O)[C@H](CCCB(O)O)[C@H](N)C(=O)O | 
30 | 41 | 43 | 8.3 |  | CC(C)[C@H](N)C(=O)NC[C@H](CCCB(O)O)[C@H](N)C(=O)O | 
